Test results published in ChEMBL document CHEMBL1201862, “PubChem BioAssay data set” (2004).
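Cells were grown in 96-well plates and exposed to each compound for 48 hours at five concentrations; endpoints were interpolated linearly between bracketing concentrations, or set to the highest concentration if not reached. GI50 marks 50% less growth.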 Calls of active or inactive are those of the source. No stated cut-off is given here; in the data, active = GI50 up to about 1.1 µM and inactive = higher. Peptide text beside a SMILES is read from it.

Key:
Test in all cases: DTP human tumour cell line panel, 48 h
SR = tested on: SR
HOP-62 = tested on: HOP-62
SF-539 = tested on: SF-539
HOP-92 = tested on: HOP-92
CCRF-CEM = tested on: CCRF-CEM
UACC-62 = tested on: UACC-62
PC-3 = tested on: PC-3
U-251 = tested on: U-251
OVCAR-3 = tested on: OVCAR-3
SNB-19 = tested on: SNB-19
OVCAR-8 = tested on: OVCAR-8
SK-MEL-2 = tested on: SK-MEL-2
M14 = tested on: M14
NCI-H460 = tested on: NCI-H460
KM12 = tested on: KM12
SNB-75 = tested on: SNB-75
Hs-578T = tested on: Hs-578T
HL-60 = tested on: HL-60
COLO 205 = tested on: COLO 205
NCI-H522 = tested on: NCI-H522

Measured: GI50

C=CCC(SC)C1=C(C)C(=O)c2ccccc21 (stereo not given)
inactive: SR > 10 µM | HOP-62 > 10 µM | SF-539 > 10 µM | HOP-92 > 10 µM | CCRF-CEM 6.55 µM | UACC-62 > 10 µM | PC-3 > 10 µM | U-251 > 10 µM | OVCAR-3 > 10 µM | SNB-19 > 10 µM | OVCAR-8 > 10 µM | SK-MEL-2 > 10 µM | M14 > 10 µM | NCI-H460 > 10 µM | KM12 > 10 µM

COc1ccccc1N1C(=O)CSC1c1c[nH]c2ccccc12 (stereo not given)
inactive: SNB-75 27.6 µM | HOP-62 > 100 µM | SF-539 > 100 µM | HOP-92 > 100 µM | Hs-578T > 100 µM | UACC-62 > 100 µM | U-251 > 100 µM | HL-60 > 100 µM | OVCAR-3 > 100 µM | SNB-19 > 100 µM | OVCAR-8 > 100 µM | SK-MEL-2 > 100 µM | M14 > 100 µM | NCI-H460 > 100 µM | COLO 205 > 100 µM | KM12 > 100 µM

CC1(C)CC(=O)C2=C(C1)NC1=C(C2)C(=O)CC(C)(C)C1
inactive: SR > 100 µM | SNB-75 > 100 µM | HOP-62 > 100 µM | SF-539 > 100 µM | CCRF-CEM > 100 µM | Hs-578T > 100 µM | UACC-62 > 100 µM | PC-3 > 100 µM | U-251 > 100 µM | HL-60 > 100 µM | OVCAR-3 > 100 µM | SNB-19 > 100 µM | OVCAR-8 > 100 µM | M14 > 100 µM | NCI-H460 > 100 µM | COLO 205 > 100 µM | KM12 > 100 µM

O=c1c2ccccc2nc(N/N=C/c2ccccc2O)n1-c1ccccc1
inactive: SNB-75 11 µM | HOP-62 5.25 µM | SF-539 5.31 µM | HOP-92 13 µM | CCRF-CEM 3.27 µM | Hs-578T 7.82 µM | UACC-62 2.77 µM | NCI-H522 4.84 µM | PC-3 3.57 µM | U-251 5.2 µM | HL-60 2.65 µM | OVCAR-3 3.49 µM | SNB-19 56.5 µM | OVCAR-8 1.99 µM | SK-MEL-2 7.67 µM | M14 4.52 µM | NCI-H460 4.01 µM | COLO 205 3.99 µM

COC(=O)[C@H]1NC(=O)CCSSC1(C)C
inactive: HOP-62 > 100 µM | SF-539 > 100 µM | HOP-92 > 100 µM | CCRF-CEM > 100 µM | Hs-578T > 100 µM | UACC-62 > 100 µM | NCI-H522 > 100 µM | PC-3 > 100 µM | U-251 > 100 µM | HL-60 > 100 µM | OVCAR-3 > 100 µM | SNB-19 > 100 µM | OVCAR-8 > 100 µM | SK-MEL-2 > 100 µM | M14 > 100 µM | COLO 205 > 100 µM | KM12 > 100 µM

COC(=O)[C@H](Cc1ccccc1)NC(=O)c1ccc(CNC(=O)/C=C/c2ccc(-c3ccccc3)cc2)cc1
inactive: SNB-75 10.5 µM | HOP-62 15.6 µM | HOP-92 80.9 µM | CCRF-CEM 6.62 µM | Hs-578T 22.8 µM | UACC-62 44.2 µM | PC-3 > 100 µM | U-251 5.97 µM | HL-60 25.9 µM | OVCAR-3 > 100 µM | SNB-19 12.6 µM | OVCAR-8 7.1 µM | SK-MEL-2 > 100 µM | M14 94.6 µM | NCI-H460 > 100 µM | COLO 205 > 100 µM | KM12 > 100 µM

O=C(Nc1ccccc1)c1cc2ccccc2c(/N=N/c2ccc([N+](=O)[O-])cc2)c1O
inactive: SNB-75 73.5 µM | HOP-62 30.6 µM | HOP-92 99.3 µM | CCRF-CEM 4.85 µM | Hs-578T 55.1 µM | UACC-62 65.2 µM | NCI-H522 > 100 µM | PC-3 > 100 µM | U-251 31.4 µM | HL-60 1.14 µM | OVCAR-3 70.1 µM | SNB-19 59.6 µM | OVCAR-8 > 100 µM | SK-MEL-2 32.8 µM | M14 > 100 µM | COLO 205 > 100 µM | KM12 > 100 µM

CCOC(=O)C(C(=O)OCC)C(NC(=O)Nc1cc(C(F)(F)F)ccc1OC)(C(F)(F)F)C(F)(F)F
inactive: HOP-62 25.4 µM | SF-539 19.5 µM | HOP-92 25.5 µM | CCRF-CEM 20.8 µM | Hs-578T 25.2 µM | UACC-62 22.5 µM | NCI-H522 22.3 µM | PC-3 39.6 µM | U-251 29.2 µM | HL-60 21.8 µM | OVCAR-3 26.1 µM | SNB-19 39.9 µM | OVCAR-8 31.6 µM | M14 21.1 µM | NCI-H460 31.5 µM | COLO 205 17.8 µM | KM12 26.9 µM

CC(C)CC(NP(=O)(O)OC1OC(C)C(O)C(O)C1O)C(=O)NC(Cc1c[nH]c2ccccc12)C(=O)O (stereo not given)
inactive: SNB-75 > 100 µM | HOP-62 > 100 µM | SF-539 > 100 µM | HOP-92 > 100 µM | CCRF-CEM > 100 µM | Hs-578T > 100 µM | UACC-62 > 100 µM | NCI-H522 > 100 µM | PC-3 > 100 µM | U-251 > 100 µM | OVCAR-3 > 100 µM | SNB-19 > 100 µM | OVCAR-8 > 100 µM | M14 > 100 µM | NCI-H460 > 100 µM | COLO 205 > 100 µM | KM12 > 100 µM

O=S(=O)(O)c1cc(Nc2ccnc3ccccc23)c2c(S(=O)(=O)O)cc(S(=O)(=O)O)cc2c1
inactive: SNB-75 > 100 µM | HOP-62 > 100 µM | SF-539 > 100 µM | CCRF-CEM > 100 µM | Hs-578T > 100 µM | UACC-62 > 100 µM | NCI-H522 > 100 µM | PC-3 > 100 µM | U-251 > 100 µM | OVCAR-3 > 100 µM | OVCAR-8 > 100 µM | SK-MEL-2 > 100 µM | M14 > 100 µM | NCI-H460 > 100 µM | COLO 205 > 100 µM | KM12 > 100 µM

CC(C)CC(NC(=O)C(CC(C)C)NC(=O)C(Cc1c[nH]cn1)NC(=O)C(C)NC(=O)C(NC(=O)C(C)NC(=O)C(Cc1c[nH]c2ccccc12)NC(=O)C(CCC(=O)O)NC(=O)C(N)Cc1ccccc1)C(C)C)C(N)=O (stereo not given) (H-FEWAVAHLL-NH2; configuration not given here)
inactive: SNB-75 > 100 µM | HOP-62 > 12.5 µM | SF-539 > 12.5 µM | CCRF-CEM > 12.5 µM | Hs-578T > 12.5 µM | UACC-62 > 12.5 µM | NCI-H522 > 12.5 µM | PC-3 > 12.5 µM | U-251 > 12.5 µM | HL-60 > 12.5 µM | OVCAR-3 > 12.5 µM | SNB-19 > 100 µM | OVCAR-8 > 12.5 µM | SK-MEL-2 > 12.5 µM | M14 > 12.5 µM | NCI-H460 > 12.5 µM | COLO 205 > 12.5 µM | KM12 > 12.5 µM
